Reference: the NIST ThermoML archive (doi:10.1021/acs.jced.9b00381)
± gives the expanded uncertainty stated by the source.

Experiments:
[1] = Crystal; DSC
[2] = Molar enthalpy of transition or fusion; settings: Crystal; DSC

Triple point temperature [1]: 424.01 ± 1 K
Molar enthalpy of transition or fusion [2]: 3.23 ± 0.105 kcal/mol
Compound: Fc1c(I)c(F)c(I)c(F)c1I [1,3,5-trifluoro-2,4,6-triiodobenzene]
